# In BindingDB's records for aid1799744 (Csar, 2012):
# pKi: −log10 of the molar value.
# Target: Mitogen-activated protein kinase 1 (Homo sapiens, UniProt P28482)
# Experiment: Assay 1
# Sequence of Mitogen-activated protein kinase 1 (P28482 whole entry): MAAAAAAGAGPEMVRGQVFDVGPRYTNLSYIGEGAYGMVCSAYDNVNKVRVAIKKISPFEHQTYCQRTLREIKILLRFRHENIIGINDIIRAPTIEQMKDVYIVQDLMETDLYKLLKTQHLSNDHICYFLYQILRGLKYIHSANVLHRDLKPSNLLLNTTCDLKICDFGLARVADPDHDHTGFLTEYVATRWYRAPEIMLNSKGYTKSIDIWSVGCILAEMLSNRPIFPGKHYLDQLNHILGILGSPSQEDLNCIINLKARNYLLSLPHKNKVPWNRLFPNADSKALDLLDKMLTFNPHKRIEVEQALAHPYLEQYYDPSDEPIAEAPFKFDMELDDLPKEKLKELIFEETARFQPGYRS
row,SMILES,pKi
1,Cc1cnc(Nc2c(C)cccc2Cl)nc1-c1c[nH]c(C(=O)N[C@H](CO)c2ccccc2)c1 [erk000575],6.96
2,Cc1cnc(NCCc2ccccc2)nc1-c1c[nH]c(C(=O)N[C@H](CO)c2ccccc2)c1 [erk000578],8.15
3,Cc1cnc(NCc2ccncc2)nc1-c1c[nH]c(C(=O)N[C@H](CO)c2ccccc2)c1 [erk000579],6.11
4,Cc1cnc(NCc2ccccn2)nc1-c1c[nH]c(C(=O)N[C@H](CO)c2ccccc2)c1 [erk000580],5.95
5,CCONc1ncc(C)c(-c2c[nH]c(C(=O)N[C@H](CO)c3cccc(Cl)c3)c2)n1 [erk000582],8.22
6,Cc1cnc(NC2CCOCC2)nc1-c1c[nH]c(C(=O)N[C@H](CO)c2cccc(Cl)c2)c1 [erk000584],8.10
7,Cc1ccc(Nc2ncc(C)c(-c3c[nH]c(C(=O)N[C@H](CO)c4cccc(Cl)c4)c3)n2)cc1 [erk000585],8.15
8,Cc1ccc(Nc2ncc(C)c(-c3c[nH]c(C(=O)N[C@H](CO)c4cccc(C)c4)c3)n2)cc1 [erk000586],8.70
9,Cc1cnc(NN2CCCCC2)nc1-c1c[nH]c(C(=O)N[C@H](CO)c2ccccc2)c1 [erk000587],9.00
10,Cc1ccc(-c2csc(Nc3ncc(C)c(-c4c[nH]c(C(=O)N[C@H](CO)c5ccccc5)c4)n3)n2)cc1 [erk000588],8.00
11,Cc1cnc(Nc2cccc3c2OC(F)(F)O3)nc1-c1c[nH]c(C(=O)N[C@H](CO)c2ccccc2)c1 [erk000591],8.10
12,Cc1cnc(NC2Cc3ccccc3C2)nc1-c1c[nH]c(C(=O)N[C@H](CO)c2cccc(Cl)c2)c1 [erk000592],7.80
13,Cc1cnc(Nc2c(F)cccc2F)nc1-c1c[nH]c(C(=O)N[C@H](CO)c2cccc(Cl)c2)c1 [erk000593],7.85
14,N#Cc1c(NCCN2CCCCC2)sc(-c2ccnc(Nc3cccc(O)c3)n2)c1-c1cccc(Cl)c1 [erk000594],7.57
15,Cc1cnc(NOCC(C)C)nc1-c1c[nH]c(C(=O)N[C@H](CO)c2cccc(Cl)c2)c1 [erk000597],7.85
16,CCONc1ncc(C)c(-c2c[nH]c(C(=O)N[C@H](CO)c3cccc(C)c3)c2)n1 [erk000599],8.52
17,Cc1cccc([C@@H](CO)NC(=O)c2cc(-c3nc(NOCC(C)C)ncc3C)c[nH]2)c1 [erk000600],8.00
18,Cc1cccc([C@@H](CO)NC(=O)c2cc(-c3nc(Nc4cccc(F)c4C)ncc3C)c[nH]2)c1 [erk000601],8.10
19,Cc1cccc([C@@H](CO)NC(=O)c2cc(-c3nc(NC4CCOCC4)ncc3C)c[nH]2)c1 [erk000602],8.52
20,Cc1cccc([C@@H](CO)NC(=O)c2cc(-c3nc(Nc4ccccn4)ncc3C)c[nH]2)c1 [erk000603],8.05

row,SMILES,pKi
1,CC[C@@H](C)Nc1ncc(C)c(-c2c[nH]c(C(=O)N[C@H](CO)c3cccc(C)c3)c2)n1 [erk000604],7.12
2,Cc1cnc(N[C@@H](C)C(C)C)nc1-c1c[nH]c(C(=O)N[C@H](CO)c2cccc(Cl)c2)c1 [erk000605],8.22
3,Cc1cnc(N[C@@H]2CCC[C@H](C)[C@@H]2C)nc1-c1c[nH]c(C(=O)N[C@H](CO)c2cccc(Cl)c2)c1 [erk000606],7.89
4,Cc1cnc(N[C@H](C)C(C)C)nc1-c1c[nH]c(C(=O)N[C@H](CO)c2cccc(Cl)c2)c1 [erk000607],9.00
5,Cc1cnc(N[C@H]2CCC[C@H]2OCc2ccccc2)nc1-c1c[nH]c(C(=O)N[C@H](CO)c2cccc(Cl)c2)c1 [erk000608],7.77
6,Cc1cnc(N[C@H]2CCC[C@@H]2OCc2ccccc2)nc1-c1c[nH]c(C(=O)N[C@H](CO)c2cccc(Cl)c2)c1 [erk000609],7.34
7,Cc1cccc([C@@H](CO)NC(=O)c2cc(-c3nc(N[C@@H]4CCOC4)ncc3C)c[nH]2)c1 [erk000610],8.00
8,Cc1cnc(Nc2ccccn2)nc1-c1c[nH]c(C(=O)N[C@H](CO)c2cccc(Cl)c2)c1 [erk000611],7.15
9,Cc1cnc(N[C@H]2CCC[C@H]2O)nc1-c1c[nH]c(C(=O)N[C@H](CO)c2cccc(Cl)c2)c1 [erk000612],8.15
10,Cc1cnc(N[C@H]2CCC[C@@H]2O)nc1-c1c[nH]c(C(=O)N[C@H](CO)c2cccc(Cl)c2)c1 [erk000613],7.46
11,CCCONc1ncc(C)c(-c2c[nH]c(C(=O)N[C@H](CO)c3cccc(C)c3)c2)n1 [erk000614],8.30
12,CCCONc1ncc(C)c(-c2c[nH]c(C(=O)N[C@H](CO)c3cccc(Cl)c3)c2)n1 [erk000615],8.40
13,COc1cccc(Nc2ncc(C)c(-c3c[nH]c(C(=O)N[C@H](CO)c4ccccc4)c3)n2)c1OC [erk000616],8.70
14,Cc1cccc(Nc2ncc(C)c(-c3c[nH]c(C(=O)N[C@H](CO)c4cccc(Cl)c4)c3)n2)n1 [erk000619],8.70
15,CC[C@@H](COC(C)=O)Nc1ncc(C)c(-c2c[nH]c(C(=O)N[C@H](COC(C)=O)c3cccc(Cl)c3)c2)n1 [erk000620],6.64
16,Cc1cnc(NN2CCCCC2)nc1-c1c[nH]c(C(=O)N[C@H](CO)c2cccc(Cl)c2)c1 [erk000621],8.30
17,COC[C@@H]1CCCN1Nc1ncc(C)c(-c2c[nH]c(C(=O)N[C@H](CO)c3cccc(Cl)c3)c2)n1 [erk000622],8.05
18,Cc1cnc(NC2CCNCC2)nc1-c1c[nH]c(C(=O)N[C@H](CO)c2cccc(Cl)c2)c1 [erk000623],7.82
19,Cc1cnc(NN2CCCC2)nc1-c1c[nH]c(C(=O)N[C@H](CO)c2cccc(Cl)c2)c1 [erk000624],8.15
20,Cc1cccc([C@@H](CO)NC(=O)c2cc(-c3nc(NOCC(F)(F)F)ncc3C)c[nH]2)c1 [erk000625],8.40

# Other lines, results leading:
row,pKi,SMILES
1,5.90,Cc1cnc(N)nc1-c1c[nH]c(C(=O)NCc2cccc(F)c2)c1 [erk000626]
2,6.49,Cc1cnc(N)nc1-c1c[nH]c(C(=O)NCc2c(Cl)cccc2Cl)c1 [erk000627]
3,6.01,Cc1cnc(N)nc1-c1c[nH]c(C(=O)NCc2cc(F)cc(F)c2)c1 [erk000629]
4,6.09,COc1cccc(CNC(=O)c2cc(-c3nc(N)ncc3C)c[nH]2)c1 [erk000630]
5,6.68,Cc1cnc(N[C@H]2CCOC2)nc1-c1c[nH]c(C(=O)N[C@H](CO)c2cccc(Cl)c2)c1 [erk000631]
6,7.82,O=c1[nH][nH]c2cc(Nc3ncc(Nc4ccccc4)c(Nc4cc(C5CC5)[nH]n4)n3)ccc12 [erk000633]
7,8.40,CCNc1ncc(C)c(-c2c[nH]c(C(=O)N[C@H](CO)c3cccc(C)c3)c2)n1 [erk000634]
8,8.40,CCNc1ncc(C)c(-c2c[nH]c(C(=O)N[C@H](CO)c3cccc(Cl)c3)c2)n1 [erk000635]
9,6.42,Cc1cnc(Nc2ccccc2)nc1-c1c[nH]c(C(=O)N[C@H](COC(=O)[C@@H](N)C(C)C)c2ccccc2)c1 [erk000637]
10,7.77,Cc1cnc(NCC2CCOCC2)nc1-c1c[nH]c(C(=O)N[C@H](CO)c2ccccc2)c1 [erk000638]
11,7.77,Cc1cnc(NCC2CCOCC2)nc1-c1c[nH]c(C(=O)N[C@H](CO)c2cccc(Cl)c2)c1 [erk000639]
12,7.55,Cc1cnc(N[C@H]2CCCOC2)nc1-c1c[nH]c(C(=O)N[C@H](CO)c2cccc(Cl)c2)c1 [erk000640]
13,7.70,Cc1cnc(NN2CCN(C)CC2)nc1-c1c[nH]c(C(=O)N[C@H](CO)c2cccc(Cl)c2)c1 [erk000641]
14,7.92,Cc1cccc([C@@H](CO)NC(=O)c2cc(-c3nc(NC4CCCCC4)ncc3C)c[nH]2)c1 [erk000642]
15,8.40,Cc1cnc(NC2CCCCC2)nc1-c1c[nH]c(C(=O)N[C@H](CO)c2cccc(Cl)c2)c1 [erk000643]
16,8.70,Cc1cnc(NC2CCCC2)nc1-c1c[nH]c(C(=O)N[C@H](CO)c2cccc(Cl)c2)c1 [erk000644]
17,7.26,Cc1cnc(Nc2ccccc2)nc1-c1c[nH]c(C(=O)N[C@H](COC(=O)CN)c2ccccc2)c1 [erk000645]
18,7.42,CC(=O)OC[C@@H](NC(=O)c1cc(-c2nc(Nc3ccccc3)ncc2C)c[nH]1)c1ccccc1 [erk000646]

row,pKi,SMILES
1,8.40,Cc1cccc([C@@H](CO)NC(=O)c2cc(-c3nc(NCC(F)(F)F)ncc3C)c[nH]2)c1 [erk000647]
2,7.59,Cc1cnc(NN(C)C)nc1-c1c[nH]c(C(=O)N[C@H](CO)c2cccc(Cl)c2)c1 [erk000648]
3,6.72,Cc1cnc(NOCc2ccccc2)nc1-c1c[nH]c(C(=O)N[C@H](CO)c2ccccc2)c1 [erk000649]
4,8.40,Cc1csc(Nc2ncc(C)c(-c3c[nH]c(C(=O)N[C@H](CO)c4cccc(Cl)c4)c3)n2)n1 [erk000652]
5,8.52,Cc1ccc(Nc2ncc(C)c(-c3c[nH]c(C(=O)N[C@H](CO)c4ccccc4)c3)n2)c(C)c1 [erk000653]
6,7.28,CCN(CC)c1ccc(Nc2ncc(C)c(-c3c[nH]c(C(=O)N[C@H](CO)c4ccccc4)c3)n2)c(C)c1 [erk000654]
7,5.63,Cc1cnc(NO)nc1-c1c[nH]c(C(=O)N[C@H](CO)c2ccccc2)c1 [erk000656]
8,8.10,Cc1cnc(Nc2ccc(Cl)cc2Cl)nc1-c1c[nH]c(C(=O)N[C@H](CO)c2ccccc2)c1 [erk000657]
9,8.70,Cc1cnc(Nc2ccc(F)cc2F)nc1-c1c[nH]c(C(=O)N[C@H](CO)c2ccccc2)c1 [erk000658]
10,6.64,NS(=O)(=O)c1cccc(Nc2nccc(-c3ccc(O)c(C(=O)O)c3)n2)c1 [erk000659]
11,8.40,Cc1cccc([C@@H](CO)NC(=O)c2cc(-c3nc(N[C@H]4CCOC4)ncc3C)c[nH]2)c1 [erk000660]
12,8.52,Cc1cnc(NNS(C)(=O)=O)nc1-c1c[nH]c(C(=O)N[C@H](CO)c2cccc(Cl)c2)c1 [erk000661]
13,8.00,O=c1[nH][nH]c2cc(Nc3ccc([N+](=O)[O-])c(Nc4cc(C5CC5)[nH]n4)n3)ccc12 [erk000662]
14,5.89,Cc1ccccc1CNC(=O)c1cc(-c2ccnc(N)n2)c[nH]1 [erk000663]
15,6.28,Nc1nccc(-c2c[nH]c(C(=O)NCc3cccc(Cl)c3)c2)n1 [erk000664]
16,7.15,Cc1cnc(Nc2ccc3ncsc3c2)nc1-c1c[nH]c(C(=O)N[C@H](CO)c2cccc(Cl)c2)c1 [erk000665]
17,8.22,CC[C@@H](COC(C)=O)Nc1ncc(C)c(-c2c[nH]c(C(=O)N[C@H](CO)c3cccc(Cl)c3)c2)n1 [erk000666]
18,8.52,Cc1cc(N)ccc1Nc1ncc(C)c(-c2c[nH]c(C(=O)N[C@H](CO)c3cccc(Cl)c3)c2)n1 [erk000668]
